For four molecules, inhibition and Adipogenesis inhibition score results are on record in US10294269B2, “Dipeptidyl ketoamide compounds and their use for the treatment and/or prevention of fat accumulation” (LANDSTEINER GENMED, S.L., priority 2014, dated 2019).

The subject of this experiment is 3T3-L1 pre-adipocyte cell line. As to the kind of experiment: Mouse 3T3-L1 pre-adipocyte cells differentiation assay (Nile Red lipid fluorescence). It counts as cell-based. Conditions: % of adipogenesis inhibition, compound at 25 μM in differentiation medium (2 days) and insulin medium (2 days), 3T3-L1 cells; for inhibition at 25 µM: Mus musculus, 48 h, read-out: Adipogenesis inhibition score. The protocol: Mouse 3T3-L1 Pre-Adipocyte Cells Differentiation Assay
Cell Culture and Treatment
Mouse (Mus musculus) 3T3-L1 pre-adipocyte cell line was purchased at ATCC.
Induction of adipocyte differentiation was performed according to Choi K C et al “The role of ghrelin and growth hormone secretagogues receptor on rat adipogenesis” Endocrinol 144: 754-759, 2003 with some modifications.
Briefly, 3T3-L1 pre-adipocytes were seeded in 24 well culture plates at a density of 3×10^4 cells/well in growth medium (DMEM containing 4.5 g/L glucose, 1 mM sodium pyruvate, 2 mM L-glutamine, 100 μg/mL streptomycin/penicilline, 25 mM HEPES and 10% calf serum (heat inactivated)). The resulting solution is used as a blank in the measure of fluorescence described below.
Cells were incubated at 37° C., 95% humidity and 10% CO2. Two days after reaching confluence (ninth day) growth medium was changed to differentiation medium (DMEM containing 4.5 g/L glucose, 2 mM L-glutamine, 100 μg/mL streptomycin/penicilline, 25 mM HEPES, 10% FBS (heat inactivated), 1 mM sodium pyruvate, 0.5 mM 3-isobutyl-1-methylxanthine, 0.25 μM dexamethasone, and 5 μg/mL insulin). After 48 h, the medium was replaced by insulin medium (DMEM containing 4.5 g/L glucose, 1 mM sodium pyruvate, 2 mM L-glutamine, 100 μg/mL streptomycin/penicillin, 25 mM HEPES, 10% FBS (inactivated) and 5 μg/mL insulin) for another 48 hours, and then incubated in 10% FBS/DMEM (same as insulin medium without insulin) for 4 days up to their complete differentiation.
The compounds to be tested were added at the 25 μM concentration to the differentiation medium (2 days) and to the insulin medium (2 days).
After incubation, the intracellular stored lipids were quantified by measuring the fluorescence after staining the lipids with the fluorescent dye Nile Red (9-diethylamino-5-benzo[α]phenoxazinone).
To carry out said lipid measurement, cells were lysed in hypotonic buffer (1 mM Tris-HCl pH=7.5) containing 2 μg/ml of Nile Red (9-diethylamino-5-benzo[t]phenoxazinone) for 15 min at 37° C.
Lysed cells were homogenized and TAG content was determined by monitoring Nile Red fluorescence in a laser spectral fluorometer. Excitation 522 nm; Emission 574 nm.
For each compound to be tested the following fluorescence measures were recorded: • FC: Fluorescence of a sample of lysed cells incubated in the presence of the compound in both the differentiation medium and in the insulin medium. • FB: Fluorescence of a blank sample of sample of pre-adipocytes in growth medium. • FNC: Fluorescence of a sample of lysed cells incubated with the differentiation medium and insulin medium not comprising any additional compound.
The inhibition of adipogenesis in the presence of the tested compounds is calculated from the following equation: % of adipogenesis inhibition=100−[100×((FC−FB)/(FNC−FB))]
% of adipogenesis inhibition (reflecting the activity against 3T3-L1 cell differentiation into adipocytes) was determined for each compound, and the effect at the […] has been chosen as the most representative value as to be shown in the structure-activity table.

For the molecule `CCNC(=O)C(=O)C(Cc1ccccc1)NC(=O)[C@H](CC(C)C)NC(=O)OC(C)(C)C` (stereo partly drawn) [Example 64, tert-butyl (2S)-1-(4-(ethylamino)-3,4-dioxo-1-phenylbutan-2-ylamino)-4-methyl-1-oxopentan-2-ylcarbamate], the inhibition at 25 µM fell in the range of 30 to 80%.

Consider `CCNC(=O)C(=O)C(Cc1ccccc1)NC(=O)[C@H](CC(C)C)NC(=O)NC(C)(C)C` (stereo partly drawn) [Example 65, (2S)-2-(3-tert-butylureido)-N-(4-(ethylamino)-3,4-dioxo-1-phenylbutan-2-yl)-4-methylpentanamide], for which the inhibition at 25 µM lay in the range of 15 to 30%.

Take `COCCOC(=O)N[C@@H](CC(C)C)C(=O)NC(Cc1ccccc1)C(=O)C(=O)NOC` (stereo partly drawn) [Example 67, [(1S)-1-(1-benzyl-2-methoxycarbamoyl-2-oxo-ethylcarbamoyl)-3-methyl-butyl]-carbamic acid 2-methoxy-ethyl ester]: the inhibition at 25 µM fell in the range of 15 to 30%.

“N-[(1S)-1-(1-benzyl-2-tert-butylcarbamoyl-2-oxo-ethylcarbamoyl)-3-methyl-butyl]-benzamide [Example 52]”: the Adipogenesis inhibition score entry was “++ (Inhibition between >15% and 30%)”.
